# Experimental data taken from publication PMC9818021, “Targets, Mechanisms and Cytotoxicity of Half-Sandwich Ir(III) Complexes Are Modulated by Structural Modifications on the Benzazole Ancillary Ligand” (Cancers, 2022).
# Experiments:
# [1] = Drug uptake by cells (ICP-MS); assay type: cell-based; settings: 16 μM, 400,000 cells, 4 h
# Procedure: 1[C,NH] reduced the lung tumor burden. Prior the performance of in vivo studies, the drug uptake was determined. The amount of 1[C,NH] entering the cell was estimated after administration of 16 μM of 1[C,NH] to 400,000 cells. The intracellular iridium content was assessed after 4 h by ICP-MS, and the percentage of drug taken up by cells was 1.7%. Then, acute toxicity and bio distribution of 1[C,NH] was studied in healthy mice (BALB/c). […] Antitumor efficacy was studied using an orthotopic model of lung cancer in nude mice (Figure 8B). A549-luc cells (A549 cells marked with luciferase) were used to induce the tumor and 20 days after the injection of cells, we proceeded to the administration of 4 doses (0.9 mg/kg) of 1[C,NH] on alternate days. […] However, we cannot exclude the appearance of toxic effects after repeated administrations over longer periods of time. […] To differentiate the effect of 1[C,NH] on the primary tumor and on the affected nodes, at day 37, the animals were sacrificed, and luciferase activity, as a marker on the presence of tumor cells, was measured. […] Moreover, lung mice were stained with a monoclonal antibody against a human cytokeratin (only A549 tumor cells of human origin were stained) (Figure 8D). […] In addition, other factors influence the efficacy of a drug on the primary tumor and not on the metastasis, cell-cell interactions, matrix in the nodes, etc. […]
# A549 cells [2] = experiment: Cardiolipin oxidation (NAO, flow cytometry); assay type: cell-based, human; settings: 4 h
# Procedure: (§1) DNA damage was measured using EpiQuik 8-OHdG DNA Damage Quantification Direct Kit (colorimetric) (Fischer, Waltham, MA, USA, P600396); The mitochondrial cytochrome C release was evaluated using the “Millipore’s FlowCellect Cytochrome C Kit (Millipore, FCCH100110)”. Lactate dehydrogenase activity release was measured in the culture medium using Cytotoxicity Detection Kit (Roche Diagnostic, Barcelona, Spain, 11 644 793 001). Protein synthesis was determined using Click-iT Plus O-propargyl-puromycin (OPP) Protein Synthesis Assay Kit (Invitrogen™, Waltham, MA, USA). Measurement of GSH/GSSG was determined with GSH/GSSG-Glo Assay (Promega, V6611). Measurements of OCR and ECAR with Seahorse XFp (Agilent Technologies) were determined using the XFp Cell Mito Stress Test Kit (103010-100) and XFp Glycolysis Stress Test Kit (103017-100). ATP measurement was determined with Cell Titer-Glo Luminescent Cell Viability Assay (Promega, Madison, WI, USA, G7570). Determination of DNA damage using phosphorylated H2AX measurement were performed as previously described. Cardiolipin oxidation using the fluorophore Nonyl Acridine Orange (NAO, Thermo Scientific, A1372) was performed as described. Cell viability was determined by Hoechst inclusion and Propidium iodide (PI) exclusion by standard protocols. TEM analysis were performed as described. […]
# [3] = system: gene expression (stress response, apoptosis, cell cycle genes); experiment: RT-qPCR differential gene expression; assay type: cell-based, human; settings: vs. Control, 6 h after treatment
# Procedure: Specific assays with 1[C,NH] complex were performed according to manufacturer’s instructions using the following reagents from Molecular Probes (Thermo Fisher Scientific): Measurements of ROS: Dihydroethidium (DHE, D11347) and 2′, 7′-dichlorodihydrofluorescein diacetate (H2DCFDA, D399); detection of caspases 3/7: CellEvent Caspase-3/7 Green Detection Reagent (C10423); Cell viability: Live/Dead Cell Imaging Kit (R37601); Analysis of cytosolic calcium concentration: Fluo3/AM (F23915); Analysis of MMP: Tetramethylrhodamine methyl ester perchlorate (TMRM, T668). RT-qPCR’s assays were performed with the following primers/probes from Thermo Fisher Scientific: DCP1A (Hs00218198-m1), FOSB (Hs00171851-m1), EGR1(Hs0015928-m1), ATF3 (Hs00231069-m1), DDIT3 (Hs00358796-g1), PP1R15A (Hs00169585-m1), CHAC1(Hs00225520-m1), MIR9-1 (Hs04231512-s1), ATP1B2 (Hs00155922-m1), BBC3 (Hs00248075-m1), BCL2L11 (Hs00798019-s1), PMAIP1 (Hs00560402-m1), SKP2 (Hs01021864-m1) and HIST1H1B (Hs00271207-s1). RT-qPCR experiments were performed as described.
# A549 cells [4] = experiment: Cytochrome c release (FlowCellect kit); assay type: cell-based, human; settings: 5 h
# Procedure: as §1
smiles,measurement,setting,value
"Cc1c(C)c(C)[c-](C)c1C.[Cl][Ir]1[c]2ccccc2-c2[nH]c3ccccc3[n+]21 [1[C,NH], [(η^5-Cp*)IrCl(κ^2-N,C-pbim)]]",Percentage of drug taken up by cells,[1],1.7%
same,Cardiolipin oxidation,A549 cells [2],induced CL oxidation
same,ATF3 RT-qPCR (2-ΔΔCt),[3],> 100
same,ATP1B2 RT-qPCR (2-ΔΔCt),[3],19.5
same,BBC3 RT-qPCR (2-ΔΔCt),[3],3.7
same,BCL2L11 RT-qPCR (2-ΔΔCt),[3],3.6
same,CHAC1 RT-qPCR (2-ΔΔCt),[3],3.5
same,DDIT3 RT-qPCR (2-ΔΔCt),[3],7.8
same,EGR1 RT-qPCR (2-ΔΔCt),[3],> 100
same,FOSB RT-qPCR (2-ΔΔCt),[3],> 100
same,HIST1H1B RT-qPCR (2-ΔΔCt),[3],0.1
same,MIR9-1 RT-qPCR (2-ΔΔCt),[3],> 100
same,PMAIP1 RT-qPCR (2-ΔΔCt),[3],3.4
same,PPP1R15A RT-qPCR (2-ΔΔCt),[3],14.8
same,SKP2 RT-qPCR (2-ΔΔCt),[3],0.3
same,Cytochrome c release,A549 cells [4],increased Cyt c release
